From patent US6545007B2, “Methods for inhibiting the transmission of HIV using topically applied substituted 6-benzyl-4-oxopyrimidines” (Idenix (Cayman) Limited, priority 2000, dated 2003)
Where two headings read alike, the source gives them in different places.

Legend:
[1] = test system: mock-infected MT-4 cells; experiment: Cytotoxicity: viability of mock-infected cells by the MTT method; type: cell-based, human
Protocol: (§1) Cells and viruses. MT-4, C8166,H9/IIIB and CEM cells were grown at 37° C. in a 5% CO2 atmosphere in RPMI 1640 medium, supplemented with 10% fetal calf serum (FCS), 100 IU/mL penicillin and 100 μg/mL streptomycin. Cell cultures were checked periodically for the absence of mycoplasma contamination with a MycoTect Kit (Gibco). Human immunodeficiency virus type-I (HIV-1, IIIB strain) was obtained from supernatants of persistently infected H9/IIIB cells.
(§2) Anti-HIV Assays. Activity of the compounds against HIV-1 and HIV-2 multiplication in acutely infected cells was based on the inhibition of virus-induced cytopathicity in MT-4 and C8166 cells, respectively. Briefly, 50 μL of culture medium containing 1×10^4 cells were added to each well of flat-bottom microtiter trays containing 50 μl of culture medium with or without various concentrations of the test compounds. Then 20 μL of an HIV suspension containing 100 CCID50 were added. After a 4-day incubation at 37° C., the number of viable cells was determined by the 3-(4,5-dimethylthiazol-[…])-2,5-diphenyltetrazolium bromide (MTT) method. Cytotoxicity of the compounds was evaluated in parallel with their antiviral activity. It was based on the viability of mock-infected cells, as monitored by the MTT method.

[2] = test system: HIV-1 (IIIB strain); type: cell-based; conditions: for EC50: anti-HIV-1 activity; for SI: selectivity index (CC50/EC50)
Protocol: Compounds. Compounds were solubilized in DMSO at 200 mM and then diluted into culture medium.
as §1
HIV Titration. Titration of HIV was performed in C8166 cells by the standard limiting dilution method (dilution 1:2, four replica wells per dilution) in 96-well plates. The infectious virus titre was determined by light microscope scoring of cytopathicity after 4 days of incubation and the virus titres were expressed as CCID50/mL.
as §2

[3] = acutely infected MT-4 cells, MTT

Row | Compound | CC50 ([1]; MTT) [µM] | EC50 [2, 3] [µM] | CC50 [1] [µM] | EC50 ([2]; HIV-1-infected MT-4 cells) [µM] | SI [2]
1 | Cc1c(C(C)c2c(F)cccc2F)nc(SC2CCCC2)[nH]c1=O (single isomer, unassigned) [MC 1047+] | > 200 | 0.002 |  |  | 
2 | Cc1c(C(C)c2c(F)cccc2F)nc(SC2CCCC2)[nH]c1=O (single isomer, unassigned) [MC 1047−] | > 200 | 0.7 |  |  | 
3 | Cc1c(C(C)c2c(F)cccc2F)nc(NC2CCCC2)[nH]c1=O (centres unmarked) [MC1129, 2-Cyclopentylamino-6-{1-(2,6-difluorophenyl)ethyl}-3,4-dihydro-5-methylpyrimidin-4-(3H)-one] |  |  | 90 | 0.02 | 4,500
4 | CC1CCC(C)C(Oc2nc(Cc3ccccc3)cc(=O)[nH]2)C1 (centres unmarked) [MC 507] |  |  | 143 | 3.5 | 40
5 | CC1CCC(Oc2nc(Cc3ccccc3)cc(=O)[nH]2)CC1C (centres unmarked) [MC 508] |  |  | 58 | 6.4 | 9
6 | CC1CC(C)CC(Oc2nc(Cc3ccccc3)cc(=O)[nH]2)C1 (centres unmarked) [MC 512] |  |  | > 200 | 30 | >6.7
7 | Cc1c(Cc2ccccc2)nc(OC2CC(C)CCC2C)[nH]c1=O (centres unmarked) [MC 531] |  |  | 138 | 3.5 | 39
8 | CCC(C)Sc1nc(C(c2ccccc2)c2ccccc2)cc(=O)[nH]1 (centres unmarked) [MC 796] |  |  | 61 | > 61 | 
9 | CCc1c(Cc2ccccc2)nc(SC(C)CC)[nH]c1=O (centres unmarked) [MC 798] |  |  | > 200 | 1 | >200
10 | CCc1c(Cc2cccc3ccccc23)nc(SC(C)CC)[nH]c1=O (centres unmarked) [MC 804] |  |  | > 200 | 5.3 | >34
11 | CCC(C)Sc1nc(Cc2ccccc2C)cc(=O)[nH]1 (centres unmarked) [MC 806] |  |  | > 200 | 1.8 | >111
12 | CCC(C)Sc1nc(Cc2ccc(C)cc2)cc(=O)[nH]1 (centres unmarked) [MC 809] |  |  | 200 | 0.6 | 333.3
13 | CCC(C)Sc1nc(Cc2c(Cl)cccc2Cl)cc(=O)[nH]1 (centres unmarked) [MC 815] |  |  | > 200 | 0.14 | >1,428
14 | CCC(C)Sc1nc(Cc2ccccc2[N+](=O)[O-])cc(=O)[nH]1 (centres unmarked) [MC 817] |  |  | > 200 | 0.25 | >800
15 | CCC(C)Sc1nc(Cc2ccccc2N)cc(=O)[nH]1 (centres unmarked) [MC 825] |  |  | > 200 | 21.2 | >9
16 | CCCCc1c(Cc2ccccc2)nc(SC(C)CC)[nH]c1=O (centres unmarked) [MC 834] |  |  | > 200 | > 200 | 
17 | Cc1ccccc1Cc1cc(=O)[nH]c(SC2CCCC2)n1 [MC 842] |  |  | > 200 | 3.4 | >59
18 | O=c1cc(Cc2ccccc2)nc(SCOCc2ccccc2)[nH]1 [MC 843] |  |  | > 200 | 45 | >4
19 | CCC(C)Sc1nc(Cc2ccccc2C)c(C)c(=O)[nH]1 (centres unmarked) [MC 844] |  |  | > 200 | 1.7 | >118
20 | CCC(C)Sc1nc(Cc2ccc(C)cc2)c(C)c(=O)[nH]1 (centres unmarked) [MC 845] |  |  | 26 | 0.8 | 32
21 | CCC(C)Sc1nc(Cc2c(F)cccc2F)cc(=O)[nH]1 (centres unmarked) [MC 848] |  |  | 200 | 0.04 | 5,000
22 | CCC(C)Sc1nc(Cc2c(Cl)cccc2Cl)c(C)c(=O)[nH]1 (centres unmarked) [MC 850] |  |  | > 200 | 0.05 | >4,000
23 | C=CCc1c(Cc2ccccc2)nc(SC(C)CC)[nH]c1=O (centres unmarked) [MC 852] |  |  | > 200 | 3 | >67
24 | CCCc1c(Cc2ccccc2)nc(SC(C)CC)[nH]c1=O (centres unmarked) [MC 856] |  |  | 190 | 12 | 16
25 | CCC(C)Sc1nc(Cc2ccc(Cl)cc2)cc(=O)[nH]1 (centres unmarked) [MC 859] |  |  | 120 | 5 | 24
26 | CC(C)Sc1nc(Cc2c(F)cccc2F)cc(=O)[nH]1 [MC 860] |  |  | > 200 | 0.2 | >1,000
27 | CCC(C)Sc1nc(Cc2ccc([N+](=O)[O-])cc2)cc(=O)[nH]1 (centres unmarked) [MC 863] |  |  | 151 | 1.5 | 101
28 | CC(C)CSc1nc(Cc2c(F)cccc2F)cc(=O)[nH]1 [MC 866] |  |  | 182 | 0.14 | 1,300
29 | O=c1cc(Cc2c(F)cccc2F)nc(SC2CCCC2)[nH]1 [MC 867] |  |  | > 200 | 0.08 | >2,500
30 | CCC(C)Sc1nc(Cc2ccccc2C(F)(F)F)cc(=O)[nH]1 (centres unmarked) [MC 868] |  |  | > 200 | 32 | 6.2
